{"source": "patent US20140171436A1", "about": "“TREATMENT OF ANTIFOLATE NEUROTOXICITY” (Syntrix Biosystems, Inc., priority 2003, published 2014)", "key": {"[1]": {"biological_target": "sigma-1 receptor (Homo sapiens, UniProt Q99720)", "sequence (Q99720 whole entry, species assumed)": "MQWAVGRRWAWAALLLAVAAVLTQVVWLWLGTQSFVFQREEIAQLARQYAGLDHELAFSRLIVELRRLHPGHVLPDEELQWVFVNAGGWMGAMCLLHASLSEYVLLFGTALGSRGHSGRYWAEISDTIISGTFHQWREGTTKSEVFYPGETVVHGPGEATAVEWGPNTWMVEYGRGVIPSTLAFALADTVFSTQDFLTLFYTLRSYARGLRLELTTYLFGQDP", "settings": "cited from earlier work; for Ki: read-out: sigma-1 affinity Ki"}, "[2]": {"settings": "frequent and massive doses as large as 3300 mg/day; cited from earlier work"}, "[3]": {"test_system": "patients with AF-NT (MTX neurotoxicity)", "test": "Patients with AF-NT treated with oral dextromethorphan", "format": "in vivo, human", "description": "For example, the intensity, duration and frequency of neurological symptoms such as seizure, paralysis, nystagmus, ataxia, dysarthria, aphasia cranial nerve palsy, asthenia can be readily determined by clinical evaluation. A variety of validated grading methods are available to assess such symptoms. As used herein, useful strategies for grading such objective AF-NT symptoms include time to initial response, time to resolution of all symptoms, and a grade (1-3) of the rate of symptom resolution for the majority of all AF-NT symptoms. In this grading system, a grade 1 is where symptoms resolve gradually or linearly over an extended period exceeding 96 hours, a grade 2 is where the majority of symptoms resolve in 25 to 96 hours), and a grade 3 is where the majority of symptoms resolve in 24 hours or less: the greater the grade, the greater degree of symptom improvement. Physical deficits that can be objectively assessed generally appear in patients with moderate- to high-dose exposure to antifolate.\nThe mean grade of symptom resolution for untreated patients was 1.4±0.2 (mean±SEM), while the mean grade of symptom resolution for treated patients was 2.3±0.2 (mean±SEM)."}, "[4]": {"biological_target": "sigma-2 (Homo sapiens, UniProt Q5BJF2)", "sequence (Q5BJF2 whole entry)": "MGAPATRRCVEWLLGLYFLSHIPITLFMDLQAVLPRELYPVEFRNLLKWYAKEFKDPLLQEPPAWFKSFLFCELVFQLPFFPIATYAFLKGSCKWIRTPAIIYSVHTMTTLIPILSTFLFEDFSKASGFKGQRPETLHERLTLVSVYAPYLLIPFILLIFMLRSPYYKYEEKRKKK", "settings": "read-out: Ki sigma-2; cited from earlier work"}, "[5]": {"settings": "in vivo; cited from earlier work"}, "[6]": {"biological_target": "NMDA receptor", "settings": "read-out: Ki NMDAR; cited from earlier work"}, "[7]": {"settings": "Example 1: NHL, 32 M, MTX 12 mg IT, oral DM 1 mg/kg once"}, "[8]": {"settings": "Example 2: ALL, 15 M, MTX 12 mg IT and 100 mg/m^2 IV, oral DM 2 mg/kg × 1"}, "[9]": {"settings": "Example 3: ALL, 19 M, MTX 7.5 mg IO and 1 g/m^2 IV, oral DM 1 mg/kg TID"}, "[10]": {"settings": "Example 4: OS, 13 M, MTX 12 g/m^2 IV, oral DM 1 mg/kg TID"}, "[11]": {"settings": "Example 4, DM 1 mg/kg three times on a single day"}, "[12]": {"settings": "Example 5: OS, 16 M, MTX 12 g/m^2 IV, oral DM 1 mg/kg × 1"}, "[13]": {"settings": "Example 6: ALL, 18 F, MTX 12 mg IT, oral DM 1 mg/kg BID"}, "[14]": {"settings": "Example 7: ALL, 6 F, MTX 12 mg IT, oral DM 1 mg/kg BID × 3"}, "[15]": {"settings": "Example 8: ALL, 9 F, MTX 12 mg IT, oral DM 1 mg/kg BID"}, "[16]": {"settings": "Example 9: ALL, 14 M, IV and IT MTX, oral DM 1 mg/kg TID"}, "[17]": {"settings": "Example 10: ALL, 8 F, MTX 12 mg IT, oral DM 1 mg/kg BID"}, "[18]": {"settings": "Example 11: ALL, 15 F, MTX 12 mg IT, oral DM 1 mg/kg BID"}, "[19]": {"settings": "Example 12: ALL, 5 M, IV and IT MTX, oral DM 1 mg/kg TID"}, "[20]": {"settings": "Example 13: ALL, 13 M, MTX 12 mg IT, oral DM 1 mg/kg BID"}, "[21]": {"settings": "Example 14: ALL, 14 F, MTX 12 mg IT, oral DM 1 mg/kg BID"}, "[22]": {"settings": "Example 15: ALL, 13 F, MTX 12 mg IT, oral DM 1.5 mg/kg BID × 6"}, "[23]": {"settings": "Example 16: ALL, 6 M, MTX 12 mg IT, oral DM 1 mg/kg BID × 5"}}, "note": "“And” between values parts separate entries of the source, which are not always exact repeats. Identical values can stand only once."}
{"molecule": "COc1ccc2c(c1)[C@@]13CCCC[C@H]1[C@@H](C2)N(C)CC3", "note": "[dextromethorphan, (+)-3-methoxy-N-methylmorphinan]", "values": [{"measurement": "Kd", "setting": "[1]; read-out: sigma-1 affinity Kd", "value": 20, "unit": "nM"}, {"measurement": "Ki", "setting": "[1]", "value": "205 nM and 210 nM"}, {"measurement": "side-effects", "setting": "[2]", "value": "unacceptable PCP-like side-effects"}, {"measurement": "Grade (1-3) of symptom resolution", "setting": "[3]; [7]", "value": "3 (3 = rapid (majority of symptoms resolved in 24 hours or less))"}, {"measurement": "Time to initial response", "setting": "[3]; [7]", "value": 3, "unit": "h"}, {"measurement": "Time to resolution of all symptoms", "setting": "[3]; [7]", "value": 24, "unit": "h"}, {"measurement": "Grade (1-3) of symptom resolution", "setting": "[3]; [8]", "value": "3 (3 = rapid (majority of symptoms resolved in 24 hours or less))"}, {"measurement": "Time to initial response", "setting": "[3]; [8]", "value": 0.50, "unit": "h"}, {"measurement": "Time to resolution of all symptoms", "setting": "[3]; [8]", "value": 6, "unit": "h"}, {"measurement": "duration of symptoms", "setting": "[3]; Example 3, text, DM 1 mg/kg three times on a single day", "value": 10, "unit": "days"}, {"measurement": "Grade (1-3) of symptom resolution", "setting": "[3]; [9]", "value": "1 (1 = gradual (symptoms resolved gradually or linearly over an extended period exceeding 96 hours))"}, {"measurement": "Time to initial response", "setting": "[3]; [9]", "value": 3, "unit": "h"}, {"measurement": "Time to resolution of all symptoms", "setting": "[3]; [9]", "value": 240, "unit": "h"}, {"measurement": "Grade (1-3) of symptom resolution", "setting": "[3]; [10]", "value": "2 (2 = moderate (majority of symptoms resolved in 25 to 96 hours))"}, {"measurement": "Time to initial response", "setting": "[3]; [10]", "value": 0.75, "unit": "h"}, {"measurement": "Time to resolution of all symptoms", "setting": "[3]; [10]", "value": 72, "unit": "h"}, {"measurement": "duration of symptoms", "setting": "[3]; [11]", "value": 3, "unit": "days"}, {"measurement": "time until symptoms began to improve", "setting": "[3]; [11]", "value": 45, "unit": "min"}, {"measurement": "duration of symptoms", "setting": "[3]; Example 5, text, DM 1 mg/kg once", "value": 0.0208, "unit": "days"}, {"measurement": "Grade (1-3) of symptom resolution", "setting": "[3]; [12]", "value": "3 (3 = rapid (majority of symptoms resolved in 24 hours or less))"}, {"measurement": "Time to initial response", "setting": "[3]; [12]", "value": 0.50, "unit": "h"}, {"measurement": "Time to resolution of all symptoms", "setting": "[3]; [12]", "value": 0.50, "unit": "h"}, {"measurement": "persistent confusion", "setting": "[3]; Example 6, text, DM 1 mg/kg po BID", "value": 8, "unit": "days"}, {"measurement": "Grade (1-3) of symptom resolution", "setting": "[3]; [13]", "value": "2 (2 = moderate (majority of symptoms resolved in 25 to 96 hours))"}, {"measurement": "Time to initial response", "setting": "[3]; [13]", "value": 24, "unit": "h"}, {"measurement": "Time to resolution of all symptoms", "setting": "[3]; [13]", "value": 192, "unit": "h"}, {"measurement": "Grade (1-3) of symptom resolution", "setting": "[3]; [14]", "value": "3 (3 = rapid (majority of symptoms resolved in 24 hours or less))"}, {"measurement": "Time to initial response", "setting": "[3]; [14]", "value": 4, "unit": "h"}, {"measurement": "Grade (1-3) of symptom resolution", "setting": "[3]; [15]", "value": "2 (2 = moderate (majority of symptoms resolved in 25 to 96 hours))"}, {"measurement": "Time to initial response", "setting": "[3]; [15]", "value": 2, "unit": "h"}, {"measurement": "Grade (1-3) of symptom resolution", "setting": "[3]; [16]", "value": "3 (3 = rapid (majority of symptoms resolved in 24 hours or less))"}, {"measurement": "Time to initial response", "setting": "[3]; [16]", "value": 2, "unit": "h"}, {"measurement": "Time to resolution of all symptoms", "setting": "[3]; [16]", "value": 3, "unit": "h"}, {"measurement": "time to complete resolution", "setting": "[3]; Example 10, text, DM 1 mg/kg po BID for 24 hours", "value": 5, "unit": "days"}, {"measurement": "Grade (1-3) of symptom resolution", "setting": "[3]; [17]", "value": "2 (2 = moderate (majority of symptoms resolved in 25 to 96 hours))"}, {"measurement": "Time to resolution of all symptoms", "setting": "[3]; [17]", "value": 120, "unit": "h"}, {"measurement": "time until back to baseline", "setting": "[3]; Example 11, text, DM 1 mg/kg po BID", "value": 8, "unit": "days"}, {"measurement": "Grade (1-3) of symptom resolution", "setting": "[3]; [18]", "value": "3 (3 = rapid (majority of symptoms resolved in 24 hours or less))"}, {"measurement": "Time to initial response", "setting": "[3]; [18]", "value": 24, "unit": "h"}, {"measurement": "Time to resolution of all symptoms", "setting": "[3]; [18]", "value": 192, "unit": "h"}, {"measurement": "Grade (1-3) of symptom resolution", "setting": "[3]; [19]", "value": "3 (3 = rapid (majority of symptoms resolved in 24 hours or less))"}, {"measurement": "Time to initial response", "setting": "[3]; [19]", "value": 24, "unit": "h"}, {"measurement": "Time to resolution of all symptoms", "setting": "[3]; [19]", "value": 24, "unit": "h"}, {"measurement": "Grade (1-3) of symptom resolution", "setting": "[3]; [20]", "value": "3 (3 = rapid (majority of symptoms resolved in 24 hours or less))"}, {"measurement": "Time to initial response", "setting": "[3]; [20]", "value": 24, "unit": "h"}, {"measurement": "Time to resolution of all symptoms", "setting": "[3]; [20]", "value": 24, "unit": "h"}, {"measurement": "time until able to speak", "setting": "[3]; Example 14, text, DM 1 mg po BID by nasogastric tube", "value": 9, "unit": "days"}, {"measurement": "Grade (1-3) of symptom resolution", "setting": "[3]; [21]", "value": "1 (1 = gradual (symptoms resolved gradually or linearly over an extended period exceeding 96 hours))"}, {"measurement": "Time to initial response", "setting": "[3]; [21]", "value": 216, "unit": "h"}, {"measurement": "Time to resolution of all symptoms", "setting": "[3]; [21]", "value": ">1000", "unit": "h"}, {"measurement": "Grade (1-3) of symptom resolution", "setting": "[3]; [22]", "value": "1 (1 = gradual (symptoms resolved gradually or linearly over an extended period exceeding 96 hours))"}, {"measurement": "Time to resolution of all symptoms", "setting": "[3]; [22]", "value": ">1000", "unit": "h"}, {"measurement": "time to complete resolution", "setting": "[3]; Example 16, text, DM 1 mg/kg po BID for 5 days", "value": "about 5 days"}, {"measurement": "Grade (1-3) of symptom resolution", "setting": "[3]; [23]", "value": "1 (1 = gradual (symptoms resolved gradually or linearly over an extended period exceeding 96 hours)) and 2 (2 = moderate (majority of symptoms resolved in 25 to 96 hours))"}, {"measurement": "Time to initial response", "setting": "[3]; [23]", "value": "24 to 48 h and 24 h"}, {"measurement": "Time to resolution of all symptoms", "setting": "[3]; [23]", "value": 120, "unit": "h"}, {"measurement": "mean grade of symptom resolution (mean±SEM)", "setting": "[3]; treated patients, Examples 1-16, P 0.0042 vs untreated, unpaired t test", "value": "2.3±0.2"}, {"measurement": "Ki", "setting": "[4]", "value": "4000 to 11000", "unit": "nM"}]}
{"molecule": "CC12CC3CC(C)(C1)CC(N)(C3)C2", "note": "[memantine]", "values": [{"measurement": "Ki", "setting": "[1]", "value": 2600, "unit": "nM"}, {"measurement": "mean CSF/serum ratio", "setting": "[5]", "value": 0.52}, {"measurement": "Ki", "setting": "[6]", "value": 500, "unit": "nM"}]}
